Measurements: patent US7718688B2, “Nitrobenzindoles and their use in cancer therapy” (Auckland Uniservices Limited, priority 2004, dated 2010)
pIC50: −log10 of the molar value.

Assays:
[1] = One-electron reduction potential E(1) by pulse radiolysis; type: physicochemical; settings: determined by pulse radiolysis
[2] = tested on: SKOV3: human ovarian carcinoma cell line; assay: Proliferation IC50 assay, oxic/hypoxic, SKOV3; type: cell-based; settings: for pIC50: 4 h exposure under aerobic conditions; for HCR (hypoxic cytotoxicity ratio) SKOV3: IC50(aerobic)/IC10(hypoxic); for HCR SKOV3: IC50(aerobic)/IC50(hypoxic)
[3] = tested on: HT29: human colon cancer cell line; assay: Proliferation IC50 assay, oxic/hypoxic, HT29; type: cell-based; settings: for pIC50: 4 h exposure under aerobic conditions; for HCR (hypoxic cytotoxicity ratio) HT29: IC50(aerobic)/IC10(hypoxic); for HCR HT29: IC50(aerobic)/IC50(hypoxic)
HT29 clonogens = assay: Clonogenic assay (C10), oxic/hypoxic, HT29; type: cell-based, human

CN(C)CCOc1ccc2[nH]c(C(=O)N3CC(CCl)c4c3cc([N+](=O)[O-])c3c([N+](=O)[O-])cccc43)cc2c1 (stereo not drawn) [Compound 2, 1-(Chloromethyl)-3-(5-[2-(dimethylamino)ethoxy]indol-2-carbonyl)-5,6-dinitro-1,2-dihydro-3H-benzo[e]indole]
E(1): one-electron reduction potential [1]: −467 ± 8 mV
pIC50 ([2]; Homo sapiens, SK-OV-3, Table 3): 5.39
HCR (hypoxic cytotoxicity ratio) SKOV3 ([2]; Table 3): 2.9
pIC50 ([3]; Homo sapiens, HT-29, Table 3): 5.55
HCR (hypoxic cytotoxicity ratio) HT29 ([3]; Table 3): 2.2

CN(C)CCOc1ccc2[nH]c(C(=O)N3CC(CCl)c4c3cc([N+](=O)[O-])c3c(C(N)=O)cccc43)cc2c1 (stereo not drawn) [Compound 5, 1-(Chloromethyl)-3-{5-[2-(dimethylamino)ethoxy]indol-2-carbonyl}-5-nitro-1,2-dihydro-3H-benzo[e]indole-6-carboxamide]
E(1): one-electron reduction potential [1]: −481 ± 8 mV
pIC50 ([2]; Homo sapiens, SK-OV-3, Table 3): 4.30
HCR (hypoxic cytotoxicity ratio) SKOV3 ([2]; Table 3): 18
pIC50 ([3]; Homo sapiens, HT-29, Table 3): 4.64
HCR (hypoxic cytotoxicity ratio) HT29 ([3]; Table 3): 43
melting point: > 350 °C

CN(C)CCOc1ccc2[nH]c(C(=O)N3CC(CCl)c4c3cc([N+](=O)[O-])c3c(C#N)cccc43)cc2c1 (stereo not drawn) [Compound 6, 1-(Chloromethyl)-3-{5-[2-(dimethylamino)ethoxy]indol-2-carbonyl}-5-nitro-1,2-dihydro-3H-benzo[e]indole-6-carbonitrile]
E(1): one-electron reduction potential [1]: −491 ± 8 mV
pIC50 ([2]; Homo sapiens, SK-OV-3, Table 3): 6.77
HCR (hypoxic cytotoxicity ratio) SKOV3 ([2]; Table 3): 1.7
pIC50 ([3]; Homo sapiens, HT-29, Table 3): 6.92
HCR (hypoxic cytotoxicity ratio) HT29 ([3]; Table 3): 1.1
melting point: > 300 °C

CN(C)CCOc1ccc2[nH]c(C(=O)N3CCc4c3cc([N+](=O)[O-])c3c(S(N)(=O)=O)c(CCl)ccc43)cc2c1 [Compound 7, 7-(Chloromethyl)-3-{5-[2-(dimethylamino)ethoxy]indol-2-carbonyl}-5-nitro-1,2-dihydro-3H-benzo[e]indole-6-sulfonamide]
E(1): one-electron reduction potential [1]: −497 ± 8 mV
pIC50 ([2]; Homo sapiens, SK-OV-3, Table 3): 5.43
HCR (hypoxic cytotoxicity ratio) SKOV3 ([2]; Table 3): 4.6
pIC50 ([3]; Homo sapiens, HT-29, Table 3): 5.57
HCR (hypoxic cytotoxicity ratio) HT29 ([3]; Table 3): 2.3
melting point: > 320 °C

COc1cc2cc(C(=O)N3CC(CCl)c4c3cc([N+](=O)[O-])c3cc([N+](=O)[O-])ccc43)[nH]c2c(OC)c1OC (stereo not drawn) [Compound 8]
pIC50 ([2]; Table 3): 4.80
HCR (hypoxic cytotoxicity ratio) SKOV3 ([2]; Table 3): 78
pIC50 ([3]; Table 3): 4.85
HCR (hypoxic cytotoxicity ratio) HT29 ([3]; Table 3): 12
Clonogenic HCR HT29 (HT29 clonogens; C10(aerobic)/C10(hypoxic)): >16.2
Clonogenic C10 HT29 Oxic (HT29 clonogens; concentration to reduce HT29 clonogens to 10% of controls, 4 hr exposure under aerobic conditions): >25 µM

COC(=O)c1ccc2c3c(cc([N+](=O)[O-])c2c1)N(C(=O)c1cc2cc(OCCN(C)C)ccc2[nH]1)CC3CCl (stereo not drawn) [Compound 14, Methyl 1-(chloromethyl)-3-{5-[2-(dimethylamino)ethoxy]indol-2-carbonyl}-5-nitro-1,2-dihydro-3H-benzo[e]indole-7-carboxylate]
E(1): one-electron reduction potential [1]: −429 ± 8 mV
pIC50 ([2]; Homo sapiens, SK-OV-3, Table 3): 6.36
HCR (hypoxic cytotoxicity ratio) SKOV3 ([2]; Table 3): 1.9
pIC50 ([3]; Homo sapiens, HT-29, Table 3): 6.49
HCR (hypoxic cytotoxicity ratio) HT29 ([3]; Table 3): 1.2

COc1cc2cc(C(=O)N3CC(CCl)c4c3cc([N+](=O)[O-])c3cc(C(=O)NCCN(C)C)ccc43)[nH]c2c(OC)c1OC (stereo not drawn) [Compound 20, 1-(Chloromethyl)-N-[2-(dimethylamino)ethyl]-5-nitro-3-(5,6,7-trimethoxyindol-2-carbonyl)-1,2-dihydro-3H-benzo[e]indole-7-carboxamide]
E(1): one-electron reduction potential [1]: −427 ± 12 mV
pIC50 ([2]; Homo sapiens, SK-OV-3, Table 3): 5.70
HCR (hypoxic cytotoxicity ratio) SKOV3 ([2]; Table 3): 24
pIC50 ([3]; Homo sapiens, HT-29, Table 3): 5.82
HCR (hypoxic cytotoxicity ratio) HT29 ([3]; Table 3): 5.9

CN(C)CCOc1ccc2[nH]c(C(=O)N3CC(CCl)c4c3cc([N+](=O)[O-])c3cc(S(C)(=O)=O)ccc43)cc2c1 (stereo not drawn) [Compound 24, 1-(Chloromethyl)-3-{5-[2-(dimethylamino)ethoxy]indol-2-carbonyl}-7-(methylsulfonyl)-5-nitro-1,2-dihydro-3H-benzo[e]indole]
E(1): one-electron reduction potential [1]: −362 ± 8 mV
pIC50 ([2]; Homo sapiens, SK-OV-3, Table 3): 5.89
HCR (hypoxic cytotoxicity ratio) SKOV3 ([2]; Table 3): 11
pIC50 ([3]; Homo sapiens, HT-29, Table 3): 6.01
HCR (hypoxic cytotoxicity ratio) HT29 ([3]; Table 3): 4.0

CN(C)CCOc1ccc2[nH]c(C(=O)N3CC(CCl)c4c3cc([N+](=O)[O-])c3ccc(C#N)cc43)cc2c1 (stereo not drawn) [Compound 45]
E(1): one-electron reduction potential [1]: −419 ± 8 mV
pIC50 ([2]; Table 3): 5.92
HCR (hypoxic cytotoxicity ratio) SKOV3 ([2]; Table 3): 1.5
pIC50 ([3]; Table 3): 5.85
HCR (hypoxic cytotoxicity ratio) HT29 ([3]; Table 3): 1.4

CN(C)CCOc1ccc2[nH]c(C(=O)N3CC(CCl)c4c3cc([N+](=O)[O-])c3ccc(S(C)(=O)=O)cc43)cc2c1 (stereo not drawn) [Compound 47, 1-(Chloromethyl)-3-{5-[2-(dimethylamino)ethoxy]indol-2-carbonyl}-8-(methylsulfonyl)-5-nitro-1,2-dihydro-3H-benzo[e]indole]
E(1): one-electron reduction potential [1]: −420 ± 8 mV
pIC50 ([2]; Homo sapiens, SK-OV-3, Table 3): 5.72
HCR (hypoxic cytotoxicity ratio) SKOV3 ([2]; Table 3): 2.7
pIC50 ([3]; Homo sapiens, HT-29, Table 3): 6.01
HCR (hypoxic cytotoxicity ratio) HT29 ([3]; Table 3): 1.2

CN(C)CCOc1ccc2[nH]c(C(=O)N3CC(CCl)c4c3cc([N+](=O)[O-])c3ccc(S(N)(=O)=O)cc43)cc2c1 (stereo not drawn) [Compound 49, 1-(Chloromethyl)-3-{5-[2-(dimethylamino)ethoxy]indol-2-carbonyl}-5-nitro-1,2-dihydro-3H-benzo[e]indole-8-sulfonamide]
E(1): one-electron reduction potential [1]: −456 ± 8 mV
pIC50 ([2]; Homo sapiens, SK-OV-3, Table 3): 5.31
HCR (hypoxic cytotoxicity ratio) SKOV3 ([2]; Table 3): 21
pIC50 ([3]; Homo sapiens, HT-29, Table 3): 5.05
HCR (hypoxic cytotoxicity ratio) HT29 ([3]; Table 3): 26
melting point: 260 to 265 °C (dec.)

CN(C)CCOc1ccc2[nH]c(C(=O)N3CC(CCl)c4c3cc([N+](=O)[O-])c3cccc([N+](=O)[O-])c43)cc2c1 (stereo not drawn) [Compound 52, 1-(Chloromethyl)-3-{5-[2-(dimethylamino)ethoxy]indol-2-carbonyl}-5,9-dinitro-1,2-dihydro-3H-benzo[e]indole]
E(1): one-electron reduction potential [1]: −477 ± 7 mV
pIC50 ([2]; Homo sapiens, SK-OV-3, Table 3): 5.92
HCR (hypoxic cytotoxicity ratio) SKOV3 ([2]; Table 3): 1.5
pIC50 ([3]; Homo sapiens, HT-29, Table 3): 5.85
HCR (hypoxic cytotoxicity ratio) HT29 ([3]; Table 3): 1.3

COc1cc2cc(C(=O)N3CC(CCl)c4c3cc(N)c3cc(S(C)(=O)=O)ccc43)[nH]c2c(OC)c1OC (stereo not drawn) [Compound 57, 5-Amino-1-(chloromethyl)-7-(methylsulfonyl)-3-(5,6,7-trimethoxyindol-2-carbonyl)-1,2-dihydro-3H-benzo[e]indole]
pIC50 ([2]; Homo sapiens, SK-OV-3, Table 4): 7.49
HCR SKOV3 ([2]; Table 4): 1.2
pIC50 ([3]; Homo sapiens, HT-29, Table 4): 7.49
HCR HT29 ([3]; Table 4): 0.86
melting point: 266 to 268 °C

CN(C)CCOc1ccc2[nH]c(C(=O)N3CC(CCl)c4c3cc(N)c3cc(S(C)(=O)=O)ccc43)cc2c1 (stereo not drawn) [Compound 58, 5-Amino-1-(chloromethyl)-3-{5-[2-(dimethylamino)ethoxy]indol-2-carbonyl}-7-(methylsulfonyl)-1,2-dihydro-3H-benzo[e]indole]
pIC50 ([2]; Homo sapiens, SK-OV-3, Table 4): 7.85
HCR SKOV3 ([2]; Table 4): 1.7
pIC50 ([3]; Homo sapiens, HT-29, Table 4): 7.96
HCR HT29 ([3]; Table 4): 1.6
melting point: 280 to 285 °C

COc1cc2cc(C(=O)N3CC(CCl)c4c3cc(N)c3cc(S(N)(=O)=O)ccc43)[nH]c2c(OC)c1OC (stereo not drawn) [Compound 59, 5-Amino-1-(chloromethyl)-3-(5,6,7-trimethoxyindol-2-carbonyl)-1,2-dihydro-3H-benzo[e]indole-7-sulfonamide]
pIC50 ([2]; Homo sapiens, SK-OV-3, Table 4): 7.39
HCR SKOV3 ([2]; Table 4): 1.3
pIC50 ([3]; Homo sapiens, HT-29, Table 4): 7.07
HCR HT29 ([3]; Table 4): 1.1
melting point: 240 to 245 °C (dec.)

CN(C)CCOc1ccc2[nH]c(C(=O)N3CC(CCl)c4c3cc(N)c3cc(S(N)(=O)=O)ccc43)cc2c1 (stereo not drawn) [Compound 60, 5-Amino-1-(chloromethyl)-3-{5-[2-(dimethylamino)ethoxy]indol-2-carbonyl}-1,2-dihydro-3H-benzo[e]indole-7-sulfonamide]
pIC50 ([2]; Homo sapiens, SK-OV-3, Table 4): 7.64
HCR SKOV3 ([2]; Table 4): 1.4
pIC50 ([3]; Homo sapiens, HT-29, Table 4): 7.46
HCR HT29 ([3]; Table 4): 1.8
melting point: 260 to 266 °C (dec.)

CNS(=O)(=O)c1ccc2c3c(cc(N)c2c1)N(C(=O)c1cc2cc(OCCN(C)C)ccc2[nH]1)CC3CCl (stereo not drawn) [Compound 61, 5-Amino-1-(chloromethyl)-3-{5-[2-(dimethylamino)ethoxy]indol-2-carbonyl}-N-methyl-1,2-dihydro-3H-benzo[e]indole-7-sulfonamide]
pIC50 ([2]; Homo sapiens, SK-OV-3, Table 4): 7.70
HCR SKOV3 ([2]; Table 4): 1.8
pIC50 ([3]; Homo sapiens, HT-29, Table 4): 7.62
HCR HT29 ([3]; Table 4): 1.2
melting point: 260 to 265 °C (dec.)

CN(C)CCOc1ccc2[nH]c(C(=O)N3CC(S(=O)(=O)NCCO)c4c3cc(N)c3c(CCl)cccc43)cc2c1 (stereo not drawn) [Compound 62, 5-Amino-6-(chloromethyl)-3-{5-[2-(dimethylamino)ethoxy]indol-2-carbonyl}-N-(2-hydroxyethyl)-1,2-dihydro-3H-benzo[e]indole-1-sulfonamide]
pIC50 ([2]; Homo sapiens, SK-OV-3, Table 4): 7.47
HCR SKOV3 ([2]; Table 4): 1.1
pIC50 ([3]; Homo sapiens, HT-29, Table 4): 7.03
HCR HT29 ([3]; Table 4): 1.0
melting point: 225 to 230 °C

COc1cc2cc(C(=O)N3CC(CCl)c4c3cc(N)c3ccc(S(C)(=O)=O)cc43)[nH]c2c(OC)c1OC (stereo not drawn) [Compound 63, 5-Amino-1-(chloromethyl)-8-(methylsulfonyl)-3-(5,6,7-trimethoxyindol-2-carbonyl)-1,2-dihydro-3H-benzo[e]indole]
pIC50 ([2]; Homo sapiens, SK-OV-3, Table 4): 7.72
HCR SKOV3 ([2]; Table 4): 1.4
pIC50 ([3]; Homo sapiens, HT-29, Table 4): 7.60
HCR HT29 ([3]; Table 4): 1.0
melting point: 165 to 170 °C

CN(C)CCOc1ccc2[nH]c(C(=O)N3CC(CCl)c4c3cc(N)c3ccc(S(C)(=O)=O)cc43)cc2c1 (stereo not drawn) [Compound 64, 5-Amino-1-(chloromethyl)-3-{5-[2-(dimethylamino)ethoxy]indol-2-carbonyl}-8-(methylsulfonyl)-1,2-dihydro-3H-benzo[e]indole]
pIC50 ([2]; Homo sapiens, SK-OV-3, Table 4): 7.74
HCR SKOV3 ([2]; Table 4): 1.5
pIC50 ([3]; Homo sapiens, HT-29, Table 4): 7.54
HCR HT29 ([3]; Table 4): 1.9
melting point: 235 to 240 °C
